In ChEMBL document CHEMBL1201862, “PubChem BioAssay data set” (2004):
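Interpolation was linear, between the two tested concentrations surrounding the appropriate level; five concentrations were tested over 48 hours in 96-well plates. GI50: concentration for 50% inhibition of growth.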 Calls of active or inactive are those of the source. Cut-off read from the data, not from the text of the source: active = GI50 up to about 1.1 µM and inactive = higher.

Experiments:
Test in all cases: NCI anticancer screen, dose series, 48 h
SK-MEL-28 = test system: SK-MEL-28
HOP-62 = test system: HOP-62
HOP-92 = test system: HOP-92
TK-10 = test system: TK-10
SNB-75 = test system: SNB-75
HCC 2998 = test system: HCC 2998
HCT-15 = test system: HCT-15
SF-539 = test system: SF-539
OVCAR-8 = test system: OVCAR-8
A498 = test system: A498
OVCAR-4 = test system: OVCAR-4
MOLT-4 = test system: MOLT-4
RXF 393 = test system: RXF 393
ACHN = test system: ACHN
CAKI-1 = test system: CAKI-1
SK-MEL-2 = test system: SK-MEL-2
IGROV-1 = test system: IGROV-1
SR = test system: SR
UACC-257 = test system: UACC-257
UO-31 = test system: UO-31

| Structure (SMILES) | GI50 (SK-MEL-28) | GI50 (HOP-62) | GI50 (HOP-92) | GI50 (TK-10) | GI50 (SNB-75) | GI50 (HCC 2998) | GI50 (HCT-15) | GI50 (SF-539) | GI50 (OVCAR-8) | GI50 (A498) | GI50 (OVCAR-4) | GI50 (MOLT-4) | GI50 (RXF 393) | GI50 (ACHN) | GI50 (CAKI-1) | GI50 (SK-MEL-2) | GI50 (IGROV-1) | GI50 (SR) | GI50 (UACC-257) | GI50 (UO-31) |
| --- | --- | --- | --- | --- | --- | --- | --- | --- | --- | --- | --- | --- | --- | --- | --- | --- | --- | --- | --- | --- |
| COc1ccc(OC)c(/C=C/C(=O)C(C)(C)C)c1 | 17.2 µM (inactive) | 23.3 µM (inactive) | 18.7 µM (inactive) | 26.4 µM (inactive) | 26 µM (inactive) | 23.2 µM (inactive) | 20.1 µM | 19.8 µM (inactive) | 15.7 µM (inactive) | 28.1 µM (inactive) | 22.6 µM (inactive) | 13.6 µM (inactive) | 18.5 µM (inactive) | 19.9 µM (inactive) | 20.6 µM (inactive) | > 10 µM (inactive) | 18.2 µM (inactive) |  |  |  |
| COc1ccc(CCN(C)C2CCC(C#N)(c3ccc(OC)c(OC)c3)CC2)cc1OC (stereo not given) | 83.8 µM (inactive) | > 100 µM (inactive) | 38.9 µM (inactive) | > 100 µM (inactive) | > 100 µM (inactive) | 34.8 µM (inactive) | > 100 µM | > 100 µM (inactive) | > 100 µM (inactive) |  | > 100 µM (inactive) | > 100 µM (inactive) | > 100 µM (inactive) | > 100 µM (inactive) |  | > 100 µM (inactive) | > 100 µM (inactive) | > 100 µM (inactive) | > 100 µM (inactive) | > 100 µM (inactive) |
| C[C@@H]1C[C@]2(C[C@@H](C)[C@H]3C(C[C@@]4(C)CCC[C@@H]5C6=C[C@H](CCC34C)OC6=CC(=O)OC5(C)C)O2)OC1=O (stereo not given in full) |  | > 51.5 µM (inactive) | 43.1 µM (inactive) |  | 13.1 µM (inactive) | > 51.5 µM (inactive) | > 51.5 µM | > 51.5 µM (inactive) | > 51.5 µM (inactive) | > 51.5 µM (inactive) | > 51.5 µM (inactive) | > 51.5 µM (inactive) |  |  | > 51.5 µM (inactive) | > 51.5 µM (inactive) | > 51.5 µM (inactive) |  | > 51.5 µM (inactive) | > 51.5 µM (inactive) |
| CC(=O)c1ccc(Oc2ccc(/C(C)=N\N=C(N)N)cc2)cc1 | 4.68 µM (inactive) | 2.26 µM (inactive) | 2.96 µM (inactive) | 3.28 µM (inactive) | 1.47 µM (inactive) | 8.41 µM (inactive) | 2.17 µM | 1.72 µM (inactive) | 3.12 µM (inactive) | 1.77 µM (inactive) | 10.6 µM (inactive) | 2.25 µM (inactive) |  | 4.73 µM (inactive) |  | 1.73 µM (inactive) | 5.62 µM (inactive) |  | 5.68 µM (inactive) |  |
| O=C1C(Cl)N(c2ccc(Cl)cc2)C1c1c[nH]c2ccccc12 (stereo not given) | 24.8 µM (inactive) | 17.7 µM (inactive) | 22.5 µM (inactive) | 19.8 µM (inactive) | 19.1 µM (inactive) |  |  | 18.2 µM (inactive) | 31.3 µM (inactive) |  | 39.7 µM (inactive) | 14.7 µM (inactive) | 20 µM (inactive) |  |  | 14.5 µM (inactive) | 16.7 µM (inactive) | 9.18 µM (inactive) | 16.8 µM (inactive) | 11.6 µM (inactive) |
| CC(C(=O)O)c1cnn(-c2ccccc2)c1-n1cccc1 (stereo not given) | > 100 µM (inactive) | > 100 µM (inactive) | > 100 µM (inactive) |  | > 100 µM (inactive) | > 100 µM (inactive) | > 100 µM | > 100 µM (inactive) | > 100 µM (inactive) | > 100 µM (inactive) | > 100 µM (inactive) | > 100 µM (inactive) | > 100 µM (inactive) |  | > 100 µM (inactive) | > 100 µM (inactive) | > 100 µM (inactive) |  | > 100 µM (inactive) | > 100 µM (inactive) |
| COc1ccc(/C=N/n2cnc3c(c2=O)SC(=C(C#N)C#N)N3c2ccccc2)cc1 | 90.8 µM (inactive) | 86.5 µM (inactive) | 38.8 µM (inactive) | > 100 µM (inactive) | 27.6 µM (inactive) | > 100 µM (inactive) |  | 36.2 µM (inactive) | > 100 µM (inactive) |  |  | > 100 µM (inactive) |  | > 100 µM (inactive) |  |  | > 100 µM (inactive) | > 100 µM (inactive) | > 100 µM (inactive) | > 100 µM (inactive) |
| CCOC(=O)/C(C#N)=C\c1ccc(N(CCC(=O)O)CCC(=O)O)c(I)c1 | > 10 µM (inactive) | > 10 µM (inactive) | > 10 µM (inactive) | > 10 µM (inactive) | > 10 µM (inactive) | > 10 µM (inactive) | > 10 µM | > 10 µM (inactive) | > 10 µM (inactive) |  | > 10 µM (inactive) | > 10 µM (inactive) | > 10 µM (inactive) | > 10 µM (inactive) | > 10 µM (inactive) |  | > 10 µM (inactive) | > 10 µM (inactive) | > 10 µM (inactive) | > 10 µM (inactive) |
| CSc1cc(=O)n2c3ccccc3c3ccnc1c32 | > 100 µM (inactive) | 35.5 µM (inactive) | 65.3 µM (inactive) |  | > 69.3 µM (inactive) | > 100 µM (inactive) | 39.7 µM | > 50 µM (inactive) | > 67.9 µM (inactive) | > 91.4 µM (inactive) | > 100 µM (inactive) | > 100 µM (inactive) | > 49.2 µM (inactive) |  |  | > 100 µM (inactive) | 25.7 µM (inactive) |  | > 54.5 µM (inactive) | 45.6 µM (inactive) |
| NC(Cc1ccccc1CP(=O)(O)O)C(=O)O (stereo not given) | > 100 µM (inactive) |  | > 100 µM (inactive) | > 100 µM (inactive) | > 100 µM (inactive) | > 100 µM (inactive) | > 100 µM | > 100 µM (inactive) | > 100 µM (inactive) |  | > 100 µM (inactive) | > 100 µM (inactive) | > 100 µM (inactive) | > 100 µM (inactive) | > 100 µM (inactive) | > 100 µM (inactive) | > 100 µM (inactive) | > 100 µM (inactive) | > 100 µM (inactive) | > 100 µM (inactive) |
| OC(c1ccc(Br)cc1)(c1cccs1)C1CC1 (stereo not given) | 22.2 µM (inactive) | 23.3 µM (inactive) | 19.7 µM (inactive) | 27.9 µM (inactive) | 25.8 µM (inactive) | 23.6 µM (inactive) | 25.4 µM | 21.4 µM (inactive) | 24.4 µM (inactive) | 21.5 µM (inactive) | 22.7 µM (inactive) | 22.1 µM (inactive) | 18.6 µM (inactive) | 27 µM (inactive) | 20.8 µM (inactive) | 20.4 µM (inactive) | 15.7 µM (inactive) |  | 27 µM (inactive) | 26.7 µM (inactive) |
| CCOC(=O)c1ccc(N2C(=O)/C(=C/c3ccc(N(CCC#N)CCC#N)cc3)N=C2c2cc([N+](=O)[O-])ccc2Cl)cc1 | > 100 µM (inactive) | > 100 µM (inactive) | > 100 µM (inactive) | > 100 µM (inactive) |  | > 100 µM (inactive) | > 100 µM | > 100 µM (inactive) | > 100 µM (inactive) |  | > 100 µM (inactive) | > 100 µM (inactive) | > 100 µM (inactive) | > 100 µM (inactive) | > 100 µM (inactive) | > 100 µM (inactive) | > 100 µM (inactive) | > 100 µM (inactive) |  | > 100 µM (inactive) |
